# Data published in US20080139664A1, “ANTI-GLYCATION AGENTS FOR PREVENTING AGE-, DIABETES-, AND SMOKING-RELATED COMPLICATIONS” (NATIONAL RESEARCH COUNCIL OF CANADA, priority 2001, published 2008).
# Like-named read-outs stand apart in the source and are kept apart here.
# Tests used:
# [1] = tested on: bovine serum albumin (BSA); experiment: Fluorescamine assay of free primary amino groups of BSA incubated with D-ribose; type: biochemical; settings: for Unreacted amino group: free primary amino group on BSA after 5 days at 37° C., agent at 16.8 times IC50, 64% without agent
# Experimental: Fluorescamine assay (Yeboah F. et al., J. Agric. Food Chem. 48, 2766-2774 (2000)) was performed on incubated mixtures of BSA and D-ribose, with or without the identified anti-glycation agents. The mixtures contained BSA (0.075 mM protein concentration or 4.53 mM of Lys residue concentration) and D-ribose (50 mM). […] The fluorescamine assay determines the number of free lysine residues of BSA. In this experiment, the final volume of the incubation mixtures was 10 mL and the incubation time was 5 days at 37° C. Prior to the fluorescamine assay, the proteins were isolated by reverse phase HPLC. The protein content was determined using the Bio-Rad protein determination reagent (Bradford method). The fluorescamine assay was done in triplicate.
# [2] = tested on: bovine serum albumin (BSA)
# Experimental: (§1) During the glycation reaction between proteins and reducing sugars, a specific fluorescence with excitation and emission wavelength of 370 nm and 440 nm, respectively, is observed. […] The assay was based on the progressive development of the characteristic Maillard fluorescence (370 nm Ex and 440 nm Em) during the progress of the glycation reaction.
# (§2) The final assay volume was 200 μl and each assay well contained 0.075 mM BSA, and 50 mM D-ribose. Compounds were assayed at 3 different concentration levels (0.003, 0.03, and 0.3 mg/mL) to determine the effect of concentration on inhibition. Samples were incubated for 5 days.
# (§3) The Maillard fluorescence was directly measured from the reaction solution, except for the anti-glycants that quenched the Maillard fluorescence, which were analyzed by the earlier-described HPLC method.
# (§4) Solutions were incubated in microtitre plates (96 wells) at 37° C. for 5 days in a closed system.
# (§5) After one hour incubation at 37° C., fluorescence readings were taken.
# (§6) The IC50 values of the compounds that quenched the fluorescence of the glycated BSA were analyzed by on-line monitoring of the fluorescence of the glycated BSA separated from the fluorescence quenching assay compound by RP-HPLC. The elution profile was monitored by UV-diode array and by fluorescence (λex=370 nm, λem=440 nm). […] The incubation conditions were the same as above.
# [3] = tested on: lysozyme; experiment: ESI-MS of lysozyme glycoforms after incubation with D-ribose; settings: 37° C., 5 days; for Peak area as % of total area of all glycoforms, 14,569: lysozyme + 2D-ribose − 2H2O (14,569 Da); for Peak area as % of total area of all glycoforms, 14,551: lysozyme + 2D-ribose − 3H2O (14,551 Da); for Peak area as % of total area of all glycoforms, 14,533: lysozyme + 2D-ribose − 5H2O (14,533 Da); for Peak area as % of total area of all glycoforms, 14,515: lysozyme + 2D-ribose − 6H2O (14,515 Da); for Peak area as % of total area of all glycoforms, 14,419: lysozyme + D-ribose − 2H2O (14,419 Da); for Peak area as % of total area of all glycoforms, 14,401: lysozyme + D-ribose − 3H2O (14,401 Da); for Peak area as % of total area of all glycoforms, 14,437: lysozyme + D-ribose − H2O (14,437 Da); for Peak area as % of total area of all glycoforms, 14,496: lysozyme + D-ribose − H2O with one carboxymethylated Lys residue (14,496 Da); for Peak area as % of total area of all glycoforms, 14,364: lysozyme with one carboxymethylated Lys residue (14,364 Da); for Peak area as % of total area of all glycoforms, 14,305: unmodified lysozyme (14,305 Da);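 as to all read-outs here: lysozyme incubated with D-ribose, with or without anti-glycation agents, then separated by reversed-phase HPLC and analysed by electrospray mass spectrometry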
# [4] = tested on: bovine serum albumin (BSA); experiment: Maillard fluorescence-based assay of AGEs formation, IC50 determination (BSA + D-ribose); settings: for IC50: inhibition of Maillard fluorescence development, 0.075 mM BSA, 50 mM D-ribose, 37° C., 5 days
# Experimental: as §1, §2, §3, §4, §5, §6
SMILES,Unreacted amino group [1],IC50 [2],"Peak area as % of total area of all glycoforms, 14,569 [3]","Peak area as % of total area of all glycoforms, 14,551 [3]","Peak area as % of total area of all glycoforms, 14,533 [3]","Peak area as % of total area of all glycoforms, 14,515 [3]","Peak area as % of total area of all glycoforms, 14,419 [3]","Peak area as % of total area of all glycoforms, 14,401 [3]","Peak area as % of total area of all glycoforms, 14,437 [3]","Peak area as % of total area of all glycoforms, 14,496 [3]","Peak area as % of total area of all glycoforms, 14,364 [3]","Peak area as % of total area of all glycoforms, 14,305 [3]",effect on protection of amino groups of BSA ([1]; in words),IC50 [4],"maximum percentage of the inhibition ([4]; Maillard fluorescence, listed if significantly lower than 100%)"
O=c1cc(-c2ccccc2)oc2cc(O)c(O)c(O)c12 [Baicalein],48%,49 µM,0.0%,0.0%,0.0%,0.0%,0.0%,0.0%,5.9%,0.0%,0.0%,94.1%,–,–,–
CCCOC(=O)c1cc(O)c(O)c(O)c1 [Propyl gallate],28%,330 µM,0.0%,0.0%,0.0%,0.0%,1.3%,0.0%,7.7%,0.0%,4.4%,86.6%,–,–,–
"O=Cc1ccc(O)c(O)c1 [3,4-Dihydroxybenzaldehyde]",32%,120 µM,1.8%,3.0%,0.0%,1.2%,3.1%,0.0%,10.9%,1.5%,0.0%,78.6%,seem to accelerate the modification of the amino groups,–,–
O=c1cc(-c2ccc(O)c(O)c2)oc2cc(O)cc(O)c12 [Luteolin],60%,60 µM,5.2%,3.0%,3.9%,1.4%,6.3%,2.1%,21.2%,0.8%,1.1%,51.4%,–,–,–
O=c1oc2c(O)c(O)cc3c(=O)oc4c(O)c(O)cc1c4c23 [Ellagic acid],52%,40 µM,0.0%,0.0%,0.0%,0.0%,1.2%,0.0%,14.6%,0.0%,1.1%,83.1%,–,–,–
Oc1ccc(CC2NCCc3cc(O)c(O)cc32)cc1O (racemic) [(±)-Tetrahydropapaveroline],51%,90 µM,2.3%,0.7%,0.8%,0.0%,2.8%,2.1%,17.6%,0.9%,3.9%,68.9%,–,–,–
O=[N+]([O-])c1cc([As](=O)(O)O)ccc1O [Roxarsone],–,–,5.1%,1.3%,1.2%,0.0%,3.1%,0.0%,27.0%,0.0%,0.0%,62.4%,–,230 µM,–
CS(=O)(=O)Nc1ccc([N+](=O)[O-])cc1Oc1ccccc1 [Nimesulide],69%,350 µM,5.2%,3.8%,2.3%,1.3%,7.6%,0.0%,22.6%,0.0%,3.4%,49.8%,–,–,–
C[C@](N)(Cc1ccc(O)c(O)c1)C(=O)O [L-α-Methyl-DOPA],47%,73 µM,2.7%,0.5%,0.1%,0.5%,1.5%,2.1%,18.3%,1.0%,3.5%,69.4%,–,–,–
"O=c1cc(-c2ccc(O)c(O)c2)oc2ccc(O)cc12 [6,3′,4′-Trihydroxyflavone]",–,–,4.0%,4.0%,1.6%,0.6%,8.8%,0.3%,21.5%,0.0%,2.0%,56.4%,–,> 4000 µM,–
Cc1ncc([N+](=O)[O-])n1CC(O)CCl (stereo not shown) [Ornidazole],60%,570 µM,4.8%,3.4%,2.0%,0.9%,6.7%,0.0%,23.4%,0.0%,3.2%,54.2%,–,–,–
Nc1ncc([N+](=O)[O-])cn1 [2-Amino-5-nitropyrimidine],–,–,4.7%,3.8%,2.0%,0.9%,7.7%,0.0%,23.0%,0.0%,3.6%,52.9%,–,810 µM,–
NCCc1ccc(O)c(O)c1 [Dopamine],60%,62 µM,1.2%,0.0%,0.0%,0.0%,1.6%,1.3%,13.4%,0.0%,3.3%,79.2%,–,–,–
NC(=O)N/N=C/c1ccc([N+](=O)[O-])o1 [Nitrofurazone],–,–,4.2%,2.8%,2.4%,1.1%,5.8%,0.0%,21.4%,0.0%,1.6%,60.8%,–,46 µM,50%)
